The source of these data is paper PMC8300687, “A Fine-Tuned Lipophilicity/Hydrophilicity Ratio Governs Antibacterial Potency and Selectivity of Bifurcated Halogen Bond-Forming NBTIs” (Antibiotics, 2021).

Data set [1] has as its system E. coli D22. As to the kind of experiment: MIC broth microdilution, E. coli D22. It counts as cell-based. To be noted: Escherichia coli, D22, read-out: MIC E. coli D22. As to the method:
(§1) Antimicrobial testing was carried out by the broth microdilution method in 96-well plate format following the Clinical and Laboratory Standards Institute (CLSI) guidelines and European Committee on Antimicrobial Susceptibility Testing (EUCAST) recommendations. Bacterial suspension of specific bacterial strain equivalent to 0.5 McFarland turbidity standard was diluted with cation-adjusted Mueller Hinton broth with TES (Thermo Fisher Diagnostic, Landsmeer, The Netherlands), to obtain a final inoculum of 10^5 CFU/mL. Compounds dissolved in DMSO and inoculum were mixed together and incubated for 18–20 h at 35 °C. Suspensions of Mycobacterium sp. were prepared into a tube of Middelbrook 7H9 broth supplemented with 5% OADC (Thermo Scientific, Trek Diagnostic Systems, West Sussex, UK) and incubated for at least 10 days. After incubation the minimal inhibitory concentration (MIC) values were determined by visual inspection as the lowest dilution of compounds showing no turbidity. Tetracycline was used as a positive control on every assay plate.

In data set [2] the test system is M. avium. As to the kind of experiment: MIC, M. avium. It counts as cell-based. As to the method:
as §1

The target of data set [3] is T1, Human topoisomerase IIα (Homo sapiens, UniProt P11388).
T1 construct: purchased Inspiralis (Norwich, UK)
As to the kind of experiment: Human topoisomerase II Alpha Relaxation High Throughput Plate assay. It counts as biochemical. The note with it: 0.5 h; residual activity of the enzyme at compound concentration 10 μM, mean ± SD; read-out: Human Topo II (% RA). On the procedure: A Human topoisomerase II Alpha Relaxation High Throughput Plate assay kit, purchased from Inspiralis (Norwich, UK) was used to evaluate the selectivity of compounds for the bacterial enzymes over the homologous human topoisomerase II. […] Biotinylated oligonucleotide in wash buffer was immobilized onto the wells and the excess oligonucleotide was washed off with wash buffer. […] The reactions were stopped by adding the TF buffer (50 mM NaOAc (pH 4.7), 50 mM NaCl, and 50 mM MgCl2) to allow the triplex formation (biotin-oligonucleotide-plasmid) for additional 30 min. Afterward, the unbound plasmid was washed off using TF buffer, and the solution of Promega Diamond dye in T10 buffer (10 mM Tris-HCl (pH 8.0), 1 mM EDTA) was added. […] Screening was performed at inhibitor concentrations of 10 μM. Raw data were converted to mean ± SD percentage of residual activity of the enzyme obtained by two independent measurements.

Data set [4] deals with MRSA (QA-11.4). As to the kind of experiment: MIC broth microdilution, MRSA QA-11.4. It counts as cell-based, methicillin-resistant S. aureus. The note with it: Staphylococcus aureus, 20 h, read-out: MIC MRSA (QA-11.4). As to the method:
as §1

Data set [5] is described as follows: Equilibrium solubility at pH 6.8. The note with it: phosphate buffered saline, 37 °C, pH 6.8, aqueous buffer, thermodynamic from solid. As to the method: (§2) Prior to the measurements of solubility and permeability isocratic HPLC methods were developed. […] The individual method parameters for each compound are given in the Supplementary Materials Table S1.
The vials were then placed in a homogenizer (Next Advance Bullet Blender, Troy, NY, USA) for 5 min ad speed setting “2” after which they were kept in a thermostated shaker (Tehtnica HeatMix, Domel, Slovenia) at 37 °C and 1200 RPM for 24 h. […] Twenty µL of these solutions were injected for the HPLC analysis by the described methods (Supplementary Materials Table S1). External standards for calibration were made in a mobile phase with 5% acetonitrile in a range of 30–90 mg/L and injected at 20 µL injection volumes.

In data set [6] the test system is S. alachua RDK 030c (QA-1482/04). As to the kind of experiment: MIC broth microdilution, S. alachua. It is filed as cell-based. On the procedure: as §1
Data set [7] concerns MRSA (QA-11.7). As to the kind of experiment: MIC broth microdilution, MRSA QA-11.7. It is filed as cell-based, methicillin-resistant S. aureus. The note with it: Staphylococcus aureus, 20 h, read-out: MIC MRSA (QA-11.7). As to the method:
as §1

The test system of data set [8] is C. jejuni RDK 135 (ATCC 33560). As to the kind of experiment: MIC broth microdilution, C. jejuni. It counts as cell-based. On the procedure:
as §1

The test system of data set [9] is M. smegmatis. As to the kind of experiment: MIC, M. smegmatis. It counts as cell-based, Mycobacterium smegmatis. On the procedure:
as §1

Data set [10] concerns MRSA. As to the kind of experiment: MIC broth microdilution, MRSA. It counts as cell-based, methicillin-resistant S. aureus. The note with it: Staphylococcus aureus, read-out: MIC MRSA. On the procedure:
as §1

The test system of data set [11] is E. coli (QA-11.7). As to the kind of experiment: MIC broth microdilution, E. coli QA-11.7. It is filed as cell-based. The note with it: Escherichia coli, 20 h, read-out: MIC E. coli (QA-11.7). As to the method: as §1
Data set [12] relates to MRSA (QA-11.6). As to the kind of experiment: MIC broth microdilution, MRSA QA-11.6. It is filed as cell-based, methicillin-resistant S. aureus. To be noted: Staphylococcus aureus, read-out: MIC MRSA (QA-11.6). On the procedure:
as §1

The test system of data set [13] is MRSA (QA-11.2). As to the kind of experiment: MIC broth microdilution, MRSA QA-11.2. The note with it: Staphylococcus aureus, 20 h, read-out: MIC MRSA (QA-11.2). It is filed as cell-based, methicillin-resistant S. aureus. As to the method:
as §1

Data set [14] deals with S. aureus (ATCC 29213). As to the kind of experiment: MIC broth microdilution, S. aureus ATCC 29213. It is filed as cell-based. On the procedure:
as §1

Data set [15] relates to S. pneumoniae (QA-10/02). As to the kind of experiment: MIC broth microdilution, S. pneumoniae. To be noted: Streptococcus pneumoniae. It counts as cell-based. On the procedure:
as §1

Data set [16] in a line: in vitro. The note with it: PAMPA. As to the method:
as §2
A 96-well precoated three-layer PAMPA plates (Corning® Gentest™ Pre-coated PAMPA Plate System, Corning, NY, USA) were used according to the manufacturer’s instructions and as described previously with 300 µL of the donor solutions in the bottom compartment and 200 µL of the acceptor solution (pH 7.4 PBS) in the upper compartment at 37 °C and a 4-h incubation time. The initial and end donor solutions were injected at a 5 µL injection volume. The initial donor solutions were also diluted 100-fold and injected at a 100 µL injection volume to serve as external references for the end acceptor solutions which were injected at the same injection volume. The permeability calculations were made with a manufacturer-provided Excel spreadsheet directly from the measured peak areas accounting for the relevant dilutions and injection volumes.

Data set [17] deals with E. coli (QA-11.8). As to the kind of experiment: MIC broth microdilution, E. coli QA-11.8. It is filed as cell-based. As to the method: as §1

≈ marks a conversion by molar mass, not a printed value. Where two headings read alike, the source gives them in different places.

T1 sequence (P11388 whole entry): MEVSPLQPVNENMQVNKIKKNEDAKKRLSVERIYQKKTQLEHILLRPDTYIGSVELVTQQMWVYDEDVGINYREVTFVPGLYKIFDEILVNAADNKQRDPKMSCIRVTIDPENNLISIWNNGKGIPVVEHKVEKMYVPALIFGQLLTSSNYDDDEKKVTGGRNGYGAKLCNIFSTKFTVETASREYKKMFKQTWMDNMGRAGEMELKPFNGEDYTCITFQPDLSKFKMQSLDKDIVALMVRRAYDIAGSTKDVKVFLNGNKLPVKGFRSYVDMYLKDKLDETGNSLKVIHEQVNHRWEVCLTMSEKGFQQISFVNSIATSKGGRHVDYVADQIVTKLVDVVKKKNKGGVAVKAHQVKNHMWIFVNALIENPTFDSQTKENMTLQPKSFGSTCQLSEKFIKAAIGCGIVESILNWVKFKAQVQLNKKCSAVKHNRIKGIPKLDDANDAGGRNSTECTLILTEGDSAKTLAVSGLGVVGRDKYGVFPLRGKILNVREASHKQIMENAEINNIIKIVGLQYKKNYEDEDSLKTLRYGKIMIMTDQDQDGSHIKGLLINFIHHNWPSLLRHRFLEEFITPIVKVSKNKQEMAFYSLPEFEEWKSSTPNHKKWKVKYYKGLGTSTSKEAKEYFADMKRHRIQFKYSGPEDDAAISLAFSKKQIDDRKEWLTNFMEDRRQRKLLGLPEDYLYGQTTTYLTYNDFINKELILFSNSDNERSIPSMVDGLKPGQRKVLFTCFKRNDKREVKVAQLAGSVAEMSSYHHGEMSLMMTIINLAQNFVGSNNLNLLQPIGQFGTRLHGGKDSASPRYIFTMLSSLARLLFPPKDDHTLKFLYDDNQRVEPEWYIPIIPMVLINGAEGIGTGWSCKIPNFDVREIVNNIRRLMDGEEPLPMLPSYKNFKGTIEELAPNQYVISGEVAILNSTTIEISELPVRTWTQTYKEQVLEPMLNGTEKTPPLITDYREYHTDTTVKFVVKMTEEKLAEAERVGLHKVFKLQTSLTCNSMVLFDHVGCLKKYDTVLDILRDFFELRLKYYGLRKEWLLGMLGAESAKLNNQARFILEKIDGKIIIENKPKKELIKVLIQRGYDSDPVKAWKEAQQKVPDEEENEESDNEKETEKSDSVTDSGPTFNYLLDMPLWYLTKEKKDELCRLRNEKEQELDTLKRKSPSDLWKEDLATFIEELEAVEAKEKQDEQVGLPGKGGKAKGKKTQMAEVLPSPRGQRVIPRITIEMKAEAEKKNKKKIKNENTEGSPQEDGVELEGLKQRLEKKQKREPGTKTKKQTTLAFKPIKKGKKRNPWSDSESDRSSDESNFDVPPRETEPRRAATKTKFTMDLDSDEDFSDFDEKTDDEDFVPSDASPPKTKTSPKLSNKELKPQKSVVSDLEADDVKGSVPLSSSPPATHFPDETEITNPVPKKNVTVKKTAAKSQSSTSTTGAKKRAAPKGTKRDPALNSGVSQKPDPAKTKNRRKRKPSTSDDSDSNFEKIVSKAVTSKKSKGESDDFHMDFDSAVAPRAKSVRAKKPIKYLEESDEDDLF

As for `COc1ccc2nccc(CCN3CCC(NCc4c(C)nc5c(C)cccn45)CC3)c2n1` [Compound 6, N-((2,8-Dimethylimidazo[1,2-a]pyridin-3-yl)methyl)-1-(2-(6-methoxy-1,5-naphthyridin-4-yl)ethyl)piperidin-4-amine], the MIC in [1] is over 128 µg/mL; in [2] (Mycobacterium avium, read-out: MIC M. avium), over 128 µg/mL; in data set [4], over 128 µg/mL; in data set [6] (Salmonella, read-out: MIC S. alachua RDK 030c (QA-1482/04)), over 128 µg/mL; in data set [7], over 128 µg/mL; in [8] (Campylobacter jejuni, ATCC33560, read-out: MIC C. jejuni RDK 135 (ATCC 33560)), over 128 µg/mL. Also, the MIC in data set [9] (Mycolicibacterium smegmatis; read-out: MIC M. smegmatis) was 64 µg/mL (≈ 144 µM); in data set [10], over 128 µg/mL; in data set [11] it was over 128 µg/mL; in data set [12], over 128 µg/mL; in data set [13] it was over 128 µg/mL; in data set [14] (Staphylococcus aureus, ATCC29213, read-out: MIC S. aureus (ATCC 29213)), over 128 µg/mL. For the same molecule, the MIC in [14] (Staphylococcus aureus, ATCC29213, read-out: S. aureus MIC in molar) was 288 µM; in data set [15] it was over 128 µg/mL; in data set [17] (Escherichia coli, 20 h, read-out: MIC E. coli (QA-11.8)), over 128 µg/mL. Moreover, the remaining activity at 10 µM in data set [3] amounted to 99.4 ± 9.93%. In [5], this molecule registered a solubility (thermodynamic) at 24 h of 797 µg/mL (≈ 1790 µM). In addition, the Papp at 4 h is over 2.7 ×10⁻⁶ cm/s in data set [16] and 5.6 ×10⁻⁶ cm/s in [16] (pH 7.4).

As to `COc1ccc2nccc(CCN3CCC(NCc4ccc(Br)cc4)CC3)c2n1` [Compound 14], the MIC in data set [1] was 0.125 µg/mL (≈ 0.274 µM); in [2] (Mycobacterium avium; read-out: MIC M. avium), 2 µg/mL (≈ 4.39 µM); in data set [4] it was 0.125 µg/mL (≈ 0.274 µM); in data set [6] (Salmonella; read-out: MIC S. alachua RDK 030c (QA-1482/04)) it was 16 µg/mL (≈ 35.1 µM); in data set [7], 0.0625 µg/mL (≈ 0.137 µM); in data set [8] (Campylobacter jejuni, ATCC33560; read-out: MIC C. jejuni RDK 135 (ATCC 33560)), 0.5 µg/mL (≈ 1.1 µM). In addition, the MIC in data set [9] (Mycolicibacterium smegmatis, read-out: MIC M. smegmatis) is 0.125 µg/mL (≈ 0.274 µM); in data set [10], 0.062 µg/mL (≈ 0.136 µM); in data set [11] (multi-resistant isolate (ampicillin, azithromycin, cefotaxime, ertapenem, imipenem and others)) it was 1 µg/mL (≈ 2.2 µM); in [12] (resistant to cefoxitin, gentamicin, sulfamethoxazole, tetracycline) it was 0.0625 µg/mL (≈ 0.137 µM); in data set [13], 0.125 µg/mL (≈ 0.274 µM); in [14] (Staphylococcus aureus, ATCC29213; S. aureus ATCC 29213; read-out: S. aureus MIC (converted)) it was 0.07 µM. Besides, the MIC in data set [14] (Staphylococcus aureus, ATCC29213; read-out: MIC S. aureus (ATCC 29213)) turned out to be 0.031 µg/mL; in data set [15], 0.125 µg/mL (≈ 0.274 µM); in data set [17] (Escherichia coli, 20 h; read-out: MIC E. coli (QA-11.8)), 1 µg/mL (≈ 2.2 µM). Also, in [3], the remaining activity at 10 µM came to 98.2 ± 2.72%. Also, the thermodynamic solubility at 24 h in [5] is 72 µg/mL (≈ 158 µM). Also, the Papp at 4 h in data set [16] is over 2.7 ×10⁻⁶ cm/s; in data set [16] (pH 7.4), 31.5 ×10⁻⁶ cm/s.
